Measurements taken from US7608601B2, “4′-Substituted nucleoside derivatives as inhibitors of HCV RNA replication” (Roche Palo Alto LLC, priority 2001, dated 2009).

Key:
[1] = tested on: HCV replicon RNA; assay: Renilla luciferase HCV replicon assay; type: cell-based, Hepatitis C Virus; details: Huh7 2209-23 cells, three days
[2] = tested on: Renilla Luciferase HCV replicon cells (2209-23); assay: WST-1 cytotoxicity assay; type: cell-based, human; details: 2209-23 cells, three days
Protocol: For the assay procedure, Renilla Luciferase HCV replicon cells (2209-23) that cultured in Dulbecco's MEM (GibcoBRL cat no. 31966-021) with 5% fetal calf serum (FCS, GibcoBRL cat. no. 10106-169) were plated onto a 96-well plate at 5000 cells per well, and incubated overnight. Twenty-four hours later, different dilutions of chemical compounds in the growth medium were added to the cells, which were then further incubated at 37° C. for three days. The assay was carried out in duplicate plates, one in opaque white and one in transparent, in order to measure the activity and cytotoxicity of a chemical compound in parallel ensuring the activity seen is not due to reduction on cell proliferation.
For the cytotoxicity assay, WST-1 reagent from Roche Diagnostic (cat no. 1644807) was used. Ten microlitre of WST-1 reagent was added to each well including wells that contain media alone as blanks. Cells were then incubated for 1 to 1.5 hours at 37° C., and the OD value was measured by a 96-well plate reader at 450 nm (reference filter at 650 nm). Again CC50, the concentration of the drug required for reducing cell proliferation by 50% in relation to the untreated cell control value, can be calculated from the plot of percentage reduction of the WST-1 value vs. drug concentration.

## [N-]=[N+]=N[C@]1(CO)O[C@@H](n2ccc(N)nc2=O)[C@H](O)[C@@H]1O [compound 1, 4′-C-Azidocytidine]
[1]; Hepatitis C virus, Huh-7, 72 h, concentration reducing replicon level by 50% vs untreated control
  IC50: 1200 nM
[2]; at 100 μM
  CC50(μM) WST-1, given as % at a concentration: 0% (100 μM)

## C#C[C@]1(CO)O[C@@H](n2ccc(N)nc2=O)[C@H](O)[C@@H]1O.Cl [compound 3, 4′-C-Ethynylcytidine hydrochloride (1:1)]
[1]; at 20 μM
  IC50 (μM), given as % at a concentration: 3% (20 μM)
[2]; at 20 μM
  CC50(μM) WST-1, given as % at a concentration: 0% (20 μM)
